From US12377104B1, “Methods for treating a fatty liver disease” (Madrigal Pharmaceuticals, Inc., priority 2024, dated 2025)

Test system: adults with biopsy-confirmed NASH
Test: MAESTRO-NASH: liver enzymes, imaging and biomarkers (MRI-PDFF, CAP, VCTE, MRE, liver and spleen volume, ELF)
Format: in vivo, human
[1] = 100 mg, wk 48, baseline ALT ≥30 U per liter
[2] = 100 mg, F1B, responder analysis
[3] = 100 mg, week 52, baseline ELF score ≥9.8
[4] = 100 mg, week 52, baseline PIIINP ≥9 ng/mL
[5] = 100 mg, week 52, baseline TIMP-I ≥240 ng/ml
[6] = 100 mg, week 52, baseline hyaluronic acid ≥50 ng/ml

CC(C)c1cc(Oc2c(Cl)cc(-n3nc(C#N)c(=O)[nH]c3=O)cc2Cl)n[nH]c1=O [Resmetirom, 2-(3,5-dichloro-4-((5-isopropyl-6-oxo-1,6-dihydropyridazin-3-yl)oxy)phenyl)-3,5-dioxo-2,3,4,5-tetrahydro-1,2,4-triazine-6-carbonitrile]
Hyaluronic acid, LS mean CFB difference from PBO (80 mg, week 52, baseline hyaluronic acid ≥50 ng/ml): 0.58 µg/L
Alanine aminotransferase level, difference from placebo (100 mg, wk 48): −26.3 percentage points
Aspartate aminotransferase level, difference from placebo (100 mg, wk 48): −25.4 percentage points
γ-Glutamyltransferase level, difference from placebo (100 mg, wk 48): −35.2 percentage points
Alanine aminotransferase level, least-squares mean percent change from baseline [1]: −33.2 ± 3.9%
Aspartate aminotransferase level, least-squares mean percent change from baseline [1]: −28.3 ± 3.9%
γ-Glutamyltransferase level, least-squares mean percent change from baseline [1]: −31.9 ± 6.3%
MRI-PDFF, difference from placebo (100 mg, wk 52): −37.9 percentage points
MRI-PDFF, least-squares mean percent change from baseline (100 mg, wk 52): −46.6 ± 2.8%
MRE ≥19% increase from BL, % of patients [2]: (20.0) %
MRE ≥19% increase from BL, no. of patients [2]: 1
MRE ≥19% reduction from BL, no. of patients [2]: 0
VCTE/LSM improving >25%, % of patients [2]: (70.0) %
VCTE/LSM improving >25%, no. of patients [2]: 7
VCTE/LSM improving ≥30%, % of patients [2]: (60.0) %
VCTE/LSM improving ≥30%, no. of patients [2]: 6
VCTE/LSM worsening ≥25%, no. of patients [2]: 0
VCTE/LSM worsening ≥30%, no. of patients [2]: 0
FibroScan VCTE/LSM, LS mean CFB (100 mg, F1B, week 52): −3.7 kPa
FibroScan VCTE/LSM, LS mean CFB difference from PBO (100 mg, F1B, week 52): −3.1 kPa
MRE, LS mean % CFB (100 mg, F1B, week 52): 2.4%
MRE, LS mean % CFB difference from PBO (100 mg, F1B, week 52): −5.1%
MRE ≥19% increase from BL, no. of patients (100 mg, F2, responder analysis): 0
MRE ≥19% reduction from BL, % of patients (100 mg, F2, responder analysis): (22.7) %
MRE ≥19% reduction from BL, no. of patients (100 mg, F2, responder analysis): 5
VCTE/LSM improving ≥25%, % of patients (100 mg, F2, responder analysis): (50.0) %
VCTE/LSM improving ≥25%, no. of patients (100 mg, F2, responder analysis): 38
VCTE/LSM improving ≥30%, % of patients (100 mg, F2, responder analysis): (40.8) %
VCTE/LSM improving ≥30%, no. of patients (100 mg, F2, responder analysis): 31
VCTE/LSM worsening ≥25%, % of patients (100 mg, F2, responder analysis): (10.5) %
VCTE/LSM worsening ≥25%, no. of patients (100 mg, F2, responder analysis): 8
VCTE/LSM worsening ≥30%, % of patients (100 mg, F2, responder analysis): (6.6) %
VCTE/LSM worsening ≥30%, no. of patients (100 mg, F2, responder analysis): 5
FibroScan VCTE/LSM, LS mean CFB (100 mg, F2, week 52): −2.4 kPa
FibroScan VCTE/LSM, LS mean CFB difference from PBO (100 mg, F2, week 52): −1.2 kPa
MRE, LS mean % CFB (100 mg, F2, week 52): 1.1%
MRE, LS mean % CFB difference from PBO (100 mg, F2, week 52): 0.99%
MRE ≥19% increase from BL, % of patients (100 mg, F3, responder analysis): (8.1) %
MRE ≥19% increase from BL, no. of patients (100 mg, F3, responder analysis): 7
MRE ≥19% reduction from BL, % of patients (100 mg, F3, responder analysis): (31.4) %
MRE ≥19% reduction from BL, no. of patients (100 mg, F3, responder analysis): 27
VCTE/LSM improving ≥25%, % of patients (100 mg, F3, responder analysis): (47.9) %
VCTE/LSM improving ≥25%, no. of patients (100 mg, F3, responder analysis): 80
VCTE/LSM improving ≥30%, % of patients (100 mg, F3, responder analysis): (38.9) %
VCTE/LSM improving ≥30%, no. of patients (100 mg, F3, responder analysis): 65
VCTE/LSM worsening ≥25%, % of patients (100 mg, F3, responder analysis): (10.8) %
VCTE/LSM worsening ≥25%, no. of patients (100 mg, F3, responder analysis): 18
VCTE/LSM worsening ≥30%, % of patients (100 mg, F3, responder analysis): (10.2) %
VCTE/LSM worsening ≥30%, no. of patients (100 mg, F3, responder analysis): 17
FibroScan VCTE/LSM, LS mean CFB (100 mg, F3, week 52): −3.2 kPa
FibroScan VCTE/LSM, LS mean CFB difference from PBO (100 mg, F3, week 52): −2.1 kPa
MRE, LS mean % CFB (100 mg, F3, week 52): 5.2%
MRE, LS mean % CFB difference from PBO (100 mg, F3, week 52): −4.8%
Liver volume, LS mean % CFB (100 mg, week 16): -21.4%
Liver volume, LS mean % CFB difference from PBO (100 mg, week 16): −21.1%
MRI-PDFF % fat fraction, LS mean % CFB (100 mg, week 16): 42.1%
MRI-PDFF % fat fraction, LS mean % CFB difference from PBO (100 mg, week 16): −35.7%
Spleen volume, LS mean % CFB (100 mg, week 16): 3.6%
Spleen volume, LS mean % CFB difference from PBO (100 mg, week 16): −5.0%
ALT, LS mean % CFB (100 mg, week 48): −33.2%
ALT, LS mean % CFB difference from PBO (100 mg, week 48): −26.3%
ALT, LS mean CFB (100 mg, week 48): 24.8 U/L
AST, LS mean % CFB (100 mg, week 48): 28.3%
AST, LS mean % CFB difference from PBO (100 mg, week 48): −25.4%
AST, LS mean CFB (100 mg, week 48): 15.8 U/L
GGT, LS mean % CFB (100 mg, week 48): -31.9%
GGT, LS mean % CFB difference from PBO (100 mg, week 48): −35.2%
GGT, LS mean CFB (100 mg, week 48): -32.7 U/L
Adiponectin, LS mean CFB (100 mg, week 52): 1.1 µg/mL
Adiponectin, LS mean CFB difference from PBO (100 mg, week 52): 1.3 µg/mL
CK-18, LS mean CFB (100 mg, week 52): -310 U/L
CK-18, LS mean CFB difference from PBO (100 mg, week 52): −165.7 U/L
FibroScan CAP, LS mean CFB (100 mg, week 52): −41.3 dB/m
FibroScan CAP, LS mean CFB difference from PBO (100 mg, week 52): −26.9 dB/m
Liver volume, LS mean % CFB (100 mg, week 52): -25.8%
Liver volume, LS mean % CFB difference from PBO (100 mg, week 52): 24.8%
MRI-PDFF % fat fraction, LS mean % CFB (100 mg, week 52): 46.6%
MRI-PDFF % fat fraction, LS mean % CFB difference from PBO (100 mg, week 52): −37.9%
Spleen volume, LS mean % CFB (100 mg, week 52): −6.1%
Spleen volume, LS mean % CFB difference from PBO (100 mg, week 52): −9.3%
Enhanced liver fibrosis score, LS mean CFB [3]: −0.35
Enhanced liver fibrosis score, LS mean CFB difference from PBO [3]: −0.24
PIIINP, LS mean % CFB [4]: -10.3%
PIIINP, LS mean % CFB difference from PBO [4]: −9.3%
PIIINP, LS mean CFB [4]: -2.1 ng/mL
PIIINP, LS mean CFB difference from PBO [4]: -1.4 ng/mL
TIMP-I, LS mean % CFB [5]: −10.1%
TIMP-I, LS mean % CFB difference from PBO [5]: −6.5%
TIMP-I, LS mean CFB [5]: -35.7 ng/mL
TIMP-I, LS mean CFB difference from PBO [5]: -22.3 ng/mL
Hyaluronic acid, LS mean % CFB [6]: 11.8%
Hyaluronic acid, LS mean % CFB difference from PBO [6]: −13.0%
Hyaluronic acid, LS mean CFB [6]: -2.9 µg/L
Hyaluronic acid, LS mean CFB difference from PBO [6]: -3.5 µg/L
